Experimental data as given in US20090104157A1, “UTILIZATION OF BACTERIOPHAGE TO CONTROL BACTERIAL CONTAMINATION IN FERMENTATION PROCESSES” (E. I. du Pont de Nemours and Company, priority 2007, published 2009).

What was measured:
L. plantarum ATCC 8014 = assay: Growth of L. plantarum in MRS broth by optical density (Example 1); assay type: cell-based, Lactobacillus plantarum; conditions: 1 ppm, after 40 hours of incubation
Excerpt: Lactobacillus plantarum is a bacterium commonly isolated from contaminated fuel ethanol fermentation. In this example, a spectrophotometer was used to quantify the growth of L. plantarum in laboratory media. The use of a spectrophotometer allowed rapid determination of bacterial levels by optical density. The optical density indicates the amount of light (at a wavelength of 450 nm) absorbed by a sample. High levels of bacterial growth in a sample well result in higher optical density.
L. plantarum ATCC 8014 was cultured overnight in MRS broth (available from Difco, Sparks, Md.) at 30° C. Stocks of L. plantarum ATCC 8014 bacteriophage (bacteriophage cocktail is referred to in the Examples as “B-8014”) were prepared and titered using the overlay method (Adams, M. H. The Bacteriophages, Interscience Publishers, New York, 1959) with MRS agar. Since bacteriophage (phage) are viruses, they are unable to replicate outside of their bacterial host. Therefore, to enumerate phage, cultures of host bacteria were prepared and mixed with dilutions of phage. These mixtures were placed onto a petri dish containing agar and incubated overnight. The presence of clear zones on “lawns” of bacteria indicated phage infection. These clear zones are known as “plaques” and therefore, phage levels are commonly referred to as plaque forming units per milliliter (PFU/ml). […]

[1] = system: Lactobacillus plantarum ATCC 8014 in corn mash; assay: Level of L. plantarum in inoculated corn mash by plating on MRS agar (Example 2); assay type: cell-based; conditions: 3 ppm
Protocol: Samples of corn mash were collected from a commercial fuel ethanol plant. The corn mash was collected immediately after liquefaction, prior to entry into fermentation. Corn mash samples were frozen upon arrival and defrosted for use in experiments. Lactobacillus plantarum ATCC 8014 was cultured overnight in MRS broth (Difco, Sparks, Md.). Samples of corn mash were inoculated with L. plantarum at approximately 10^4 CFU/ml. This level of bacterial contamination is common in fuel ethanol plants. L. plantarum bacteriophage (B-8014) were prepared and titered using the overlay method on MRS agar (as described in Example 1). One sample of corn mash received no treatment. A second sample was treated by the addition of 3 parts per million (ppm) of Penicillin G. Three additional samples were treated with phage at a bacteria to phage ratio of 1:1, 1:10, and 1:100. All mash samples were incubated at 33° C., the temperature at which commercial fermentation takes place. The level of bacteria remaining in the test samples was determined by decimal dilutions in phosphate-buffered saline followed by plating of these dilutions onto plates of MRS agar. Plates were incubated overnight at 33° C. and colonies were enumerated.

CC1(C)S[C@@H]2[C@H](NC(=O)Cc3ccccc3)C(=O)N2[C@H]1C(=O)O [Penicillin G]
optical density at 450 nm compared with control wells (L. plantarum ATCC 8014): higher | reduction of growth of L. plantarum (L. plantarum ATCC 8014): not effective | effect on growth of L. plantarum [1]: did not affect or control growth | Log CFU/ml at 0 hours ([1]; 33° C.): 4.86 Log CFU/ml | Log CFU/ml at 24 hours ([1]; 33° C.): 9.09 Log CFU/ml | Log CFU/ml at 40 hours ([1]; 33° C.): 9.19 Log CFU/ml
